Patent publication US11046686B2, “Thiadiazole IRAK4 compounds” (Gilead Sciences, Inc., priority 2018, dated 2021)
Where two headings read alike, the source gives them in different places.

System: TNFα
Experiment: IRAK4 Monocyte TNFα Cell Based Assay
Set-up: species or system human
Protocol: IRAK4 Monocyte TNFα Cell Based Assay Procedure:
The cell suspension was then plated at a density of 5,000 cells/well onto black 384 well Greiner clear bottom plates. Plates were pre-spotted with test compounds and serially diluted in DMSO where 40 nL/well were delivered using the Echo 550 acoustic liquid dispenser (Labcyte®) for a final DMSO concentration of 0.1%. Plated cells were treated with compound for 1 hour at 37° C. Cells were then stimulated with 50 pg/ml of LPS (Sigma) excluding outside columns of plate used for unstimulated cell control wells. Cells were incubated for an additional 4 hours at 37° C. Cells were then spun out of the media and 5 μl of sample were taken and analyzed for total TNFα content using the TR-FRET Human TNFα detection system (CisBio). This system utilizes two labeled antibodies (cryptate and XL665) that bind to two different epitopes of the TNFα molecule and produce FRET signal proportional to the concentration of TNFα in the sample. Detection antibodies are mixed 50:50 and 5 μL were dispensed into each well. Plates were covered with clear seals and incubated at room temp overnight. […] Percent of control was calculated as follows: % Control=100×(Ratiosample−Ratio0% stimulation)/(Ratio100% Stimulation−Ratio0% Stimulation) where unstimulated cells (0% stimulation) were the negative control and stimulated cells (100% stimulation) were used as the positive control.

[1] = human monocytes, second part of Table 2, compounds 33-343, unit inferred, read-out: EC50 MONO TNF HTRF
[2] = Homo sapiens, Monocyte, human monocytes, LPS stimulated, compounds 1-32, read-out: EC50 TNF

Structure (SMILES)	EC50 [1]	also measured
CC(=O)N1C2CC1CN(c1nnc(-c3cnc(-c4ccc5cc(C#N)cnn45)cc3NC3(C)COC3)s1)C2 [Example 111, 7-(5-(5-(6-acetyl-3,6-diazabicyclo[3.1.1]heptan-3-yl)-1,3,4-thiadiazol-2-yl)-4-((3-methyloxetan-3-yl)amino)pyridin-2-yl)pyrrolo[1,2-b]pyridazine-3-carbonitrile]		EC50 (Homo sapiens, Monocyte, read-out: EC50 MONO TNF HTRF): 8.8 nM
CC(=O)N[C@H]1CC[C@H](c2nnc(-c3cnc(-c4ccc5cc(C#N)cnn45)cc3NC(C)C)s2)CC1 [Example 24, N-((1r,4r)-4-(5-(6-(3-cyanopyrrolo[1,2-b]pyridazin-7-yl)-4-(isopropylamino)pyridin-3-yl)-1,3,4-thiadiazol-2-yl)cyclohexyl)acetamide]		EC50 [2]: 14 nM
CC(=O)NC1CCN(C(=O)c2nnc(-c3cnc(-c4ccc5cc(C#N)cnn45)cc3NC(C)C)s2)CC1 [Example 8, N-(1-(5-(6-(3-cyanopyrrolo[1,2-b]pyridazin-7-yl)-4-(isopropylamino)pyridin-3-yl)-1,3,4-thiadiazole-2-carbonyl)piperidin-4-yl)acetamide]		EC50 [2]: 7540 nM
CC(=O)N[C@@H]1C[C@H]2CC[C@@H](C1)N2c1nnc(-c2cnc(-c3ccc4cc(C#N)cnn34)cc2NC(C)C)s1 [Example 56, N-((1R,3s,5S)-8-(5-(6-(3-cyanopyrrolo[1,2-b]pyridazin-7-yl)-4-(isopropylamino)pyridin-3-yl)-1,3,4-thiadiazol-2-yl)-8-azabicyclo[3.2.1]octan-3-yl)acetamide]	8.3 nM	
CC(=O)N[C@H]1CN(c2nnc(-c3cnc(-c4ccc5cc(C#N)cnn45)cc3NC(C)C)s2)CC12CC2 [Compound 323]	3.7 nM	
CC(=O)N[C@@H]1[C@@H]2CC[C@H]1CN(c1nnc(-c3cnc(-c4ccc5cc(C#N)cnn45)cc3NC3CCOCC3)s1)C2 [Example 171, N-((1R,5S,8s)-3-(5-(6-(3-cyanopyrrolo[1,2-b]pyridazin-7-yl)-4-((tetrahydro-2H-pyran-4-yl)amino)pyridin-3-yl)-1,3,4-thiadiazol-2-yl)-3-azabicyclo[3.2.1]octan-8-yl)acetamide]	2.1 nM	
CC(=O)N1CCC2(CC1)CN(c1nnc(-c3cnc(-c4ccc5cc(C#N)cnn45)cc3NC3CCOCC3)s1)C2 [Example 76, 7-(5-(5-(7-acetyl-2,7-diazaspiro[3.5]nonan-2-yl)-1,3,4-hiadiazol-2-yl)-4-((tetrahydro-2H-pyran-4-yl)amino)pyridin-2-yl)pyrrolo[1,2-b]pyridazine-3-carbonitrile]	4.4 nM	
CC(=O)N[C@H]1[C@@H]2COC[C@H]1CN(c1nnc(-c3cnc(-c4ccc5cc(C#N)cnn45)cc3NC(C)C)s1)C2 [Example 182, N-((1R,5S,9r)-7-(5-(6-(3-cyanopyrrolo[1,2-b]pyridazin-7-yl)-4-(isopropylamino)pyridin-3-yl)-1,3,4-thiadiazol-2-yl)-3-oxa-7-azabicyclo[3.3.1]nonan-9-yl)acetamide]	37.8 nM	
CC(C)Nc1cc(-c2ccc3cc(C#N)cnn23)ncc1-c1nnc([C@H]2CC[C@H](NC(=O)CN=S(C)(C)=O)CC2)s1 [Compound 339]	9.1 nM	
CC(C)Nc1cc(-c2ccc3cc(C#N)cnn23)ncc1-c1nnc(N2C[C@H]3CC[C@@H](C2)[C@@H]3Nc2ncccn2)s1 [Example 308, 7-(4-(isopropylamino)-5-(5-((1R,5S,8s)-8-(pyrimidin-2-ylamino)-3-azabicyclo[3.2.1]octan-3-yl)-1,3,4-thiadiazol-2-yl)pyridin-2-yl)pyrrolo[1,2-b]pyridazine-3-carbonitrile]	18.4 nM	
CC(=O)N1[C@@H]2COC[C@H]1CN(c1nnc(-c3cnc(-c4ccc5cc(C#N)cnn45)cc3NC3CCOCC3)s1)C2 [Compound 269, 7-(5-(5-((1R,5S)-9-acety1-3-oxa-7,9-diazabicyclo[3.3.1]nonan-7-yl)-1,3,4-thiadiazol-2-yl)-4-((tetrahydro-2H-pyran-4-yl)amino)pyridin-2-yl)pyrrolo[1,2-b]pyridazine-3-carbonitrile]	5.8 nM	
CC(C)Nc1cc(-c2ccc3cc(C#N)cnn23)ncc1-c1nnc(N2C[C@H]3CC[C@@H](C2)[C@@H]3NC(=O)C(C)(C)C(=O)O)s1 [Example 97]	21.7 nM	
CC(C)Nc1cc(-c2ccc3cc(C#N)cnn23)ncc1-c1nnc(C2CCC(NC(=O)C(C)(C)C(=O)O)CC2)s1 (centres unmarked) [Compound 341]	72.4 nM	
CC(=O)N1C[C@H]2COC[C@@H](C1)N2c1nnc(-c2cnc(-c3ccc4cc(C#N)cnn34)cc2NC(C)C)s1 [Compound 266]	3.2 nM	
CC(C)(O)C(=O)N[C@@H]1[C@@H]2CC[C@H]1CN(c1nnc(-c3cnc(-c4ccc5cc(C#N)cnn45)cc3NC3COC3)s1)C2 [Example 87, N-((1R,5S,8s)-3-(5-(6-(3-cyanopyrrolo[1,2-b]pyridazin-7-yl)-4-(oxetan-3-ylamino)pyridin-3-yl)-1,3,4-thiadiazol-2-yl)-3-azabicyclo[3.2.1]octan-8-yl)-2-hydroxy-2-methylpropanamide]	2.1 nM	

Second part, led by results:

EC50 [1]	Structure (SMILES)	also measured
39.1 nM	CC(=O)N[C@H]1[C@@H]2CCC[C@H]1CN(c1nnc(-c3cnc(-c4ccc5cc(C#N)cnn45)cc3NC(C)C)s1)C2 [Example 165, N-((1R,5S,9r)-3-(5-(6-(3-cyanopyrrolo[1,2-b]pyridazin-7-yl)-4-(isopropylamino)pyridin-3-yl)-1,3,4-thiadiazol-2-yl)-3-azabicyclo[3.3.1]nonan-9-yl)acetamide]	
8.5 nM	CC(C)Nc1cc(-c2ccc3cc(C#N)cnn23)ncc1-c1nnc(N2C[C@H]3CC[C@@H](C2)[C@@H]3N)s1 [Example 60, 7-(5-(5-((1R,5S,8s)-8-amino-3-azabicyclo[3.2.1]octan-3-yl)-1,3,4-thiadiazol-2-yl)-4-(isopropylamino)pyridin-2-yl)pyrrolo[1,2-b]pyridazine-3-carbonitrile]	
5.2 nM	CC(C)Nc1cc(-c2ccc3cc(C#N)cnn23)ncc1-c1nnc(N2C[C@H]3CC[C@@H](C2)[C@@H]3NC(=O)C2CC2)s1 [Example 150, N-((1R,5S,8s)-3-(5-(6-(3-cyanopyrrolo[1,2-b]pyridazin-7-yl)-4-(isopropylamino)pyridin-3-yl)-1,3,4-thiadiazol-2-yl)-3-azabicyclo[3.2.1]octan-8-yl)cyclopropanecarboxamide]	
22.6 nM	CC(C)(O)C(=O)N[C@H]1CC[C@@H](c2nnc(-c3cnc(-c4ccc5cc(C#N)cnn45)cc3NC3COC3)s2)CC1 [Example 311, N-((1s,4s)-4-(5-(6-(3-cyanopyrrolo[1,2-b]pyridazin-7-yl)-4-(oxetan-3-ylamino)pyridin-3-yl)-1,3,4-thiadiazol-2-yl)cyclohexyl)-2-hydroxy-2-methylpropanamide]	
13.8 nM	CC(=O)N[C@@H]1CCN(c2nnc(-c3cnc(-c4ccc5cc(C#N)cnn45)cc3NC(C)C)s2)C[C@@H]1O [Example 63]	
3.3 nM	CC(C)Nc1cc(-c2ccc3cc(C#N)cnn23)ncc1-c1nnc(N2C[C@H]3CC[C@@H](C2)[C@@H]3NC(=O)C(C)(C)O)s1 [Example 85, N-((1R,5S,8s)-3-(5-(6-(3-cyanopyrrolo[1,2-b]pyridazin-7-yl)-4-(isopropylamino)pyridin-3-yl)-1,3,4-thiadiazol-2-yl)-3-azabicyclo[3.2.1]octan-8-yl)-2-hydroxy-2-methylpropanamide]	
166 nM	CC(=O)N[C@H]1C[C@H](c2nnc(-c3cnc(-c4ccc5cc(C#N)cnn45)cc3NC3COC3)s2)C1 [Example 202]	
687 nM	CC(C)Nc1cc(-c2ccc3cc(C#N)cnn23)ncc1-c1nnc(N2C[C@H]3CC[C@@H](C2)[C@@H]3Nc2ncccc2F)s1 [Example 309]	
10.2 nM	CC(=O)NC1CN(c2nnc(-c3cnc(-c4ccc5cc(C#N)cnn45)cc3NC(C)C)s2)CC1(F)F (centres unmarked) [Compound 327]	
25.7 nM	CC(C)Nc1cc(-c2ccc3cc(C#N)cnn23)ncc1-c1nnc(N2CC3CCC(C2)C3(O)C(F)(F)F)s1 (centres unmarked) [Example 159, 7-(5-(5-(8-hydroxy-8-(trifluoromethyl)-3-azabicyclo[3.2.1]octan-3-yl)-1,3,4-thiadiazol-2-yl)-4-(isopropylamino)pyridin-2-yl)pylrolo[1,2-b]pyridazine-3-carbonitrile]	
5.8 nM	CC(=O)N1C2CC1CN(c1nnc(-c3cnc(-c4ccc5cc(C#N)cnn45)cc3NC(C)C)s1)C2 [Compound 258, 7-(5-(5-(6-acetyl-3,6-diazabicyclo[3.1.1]heptan-3-yl)-1,3,4-thiadiazo1-2-yl)-4-(isopropylamino)pyridin-2-yl)pyrrolo[1,2-b]pyridazine-3-carbonitrile]	
6.4 nM	CC(=O)N[C@H]1CC[C@H](c2nnc(-c3cnc(-c4ccc5cc(C#N)cnn45)cc3N[C@H]3C[C@@](C)(O)C3)s2)CC1 [Compound 243, N-((1R,4r)-4-(5-(6-(3-cyanopyrrolo[1,2-b]pyridazin-7-yl)-4-(((1s,3S)-3-hydroxy-3-methylcyclobutyl)amino)pyridin-3-yl)-1,3,4-thiadiazol-2-yl)cyclohexyl)acetamide]	
1830 nM	CC(C)Nc1cc(-c2ccc3cc(C#N)cnn23)ncc1-c1nnc(C(=O)N[C@H]2C[C@H](O)C2)s1 [Example 213, 5-(6-(3-cyanopyrrolo[1,2-b]pyridazin-7-yl)-4-(isopropylamino)pyridin-3-yl)-N-((1r,3r)-3-hydroxycyclobutyl)-1,3,4-thiadiazole-2-carboxamide]	
81.4 nM	CC(=O)N[C@H]1CCN(c2nnc(-c3cnc(-c4ccc5cc(C#N)cnn45)cc3NC(C)C)s2)C1 [Compound 331]	
